Data reported in patent US4332820A, “Substituted benzonitriles having antiviral activity” (The Dow Chemical Company, priority 1980, dated 1982).
In brackets after ≈: the same amount, converted by molar mass.

Experiments:
[1] = Cytotoxicity in tissue culture (HeLa monolayers); assay type: cell-based; settings: human; HeLa cells; observed at 48 and 72 hours post-treatment; read-out: Cytotoxicity (concentration of the compound found to be toxic to the cell)
rhinovirus type 2 (RV-2) = experiment: Tissue culture antiviral testing, RV-2 (cytopathic effect, HeLa cells); assay type: cell-based; settings: Enterovirus, HeLa cells, NA = not active at the standard test conditions, read-out: Lowest concentration of the compound necessary to cause a 50 percent reduction in cytopathic effect
[2] = system: Coxsackie A21 virus (Cox A21); experiment: Tissue culture antiviral testing, Cox A21 (cytopathic effect, HeLa cells); assay type: cell-based; settings: HeLa cells, NA = not active at the standard test conditions, read-out: Lowest concentration of the compound necessary to cause a 50 percent reduction in cytopathic effect
Cox A21 = experiment: Single Oral Dose test in mice challenged with Cox A21; assay type: in vivo, Swiss male mice; settings: po, 600 mg/kg, 3 h
Coxsackie A21 virus = experiment: Continuous Oral Feeding test in mice challenged with Coxsackie A21; assay type: in vivo; settings: po, 0.06 % in diet, 240 h, 0.06 % strength
[3] = system: rhinovirus type 1A (RV-1A); experiment: Tissue culture antiviral testing, RV-1A (cytopathic effect, HeLa cells); assay type: cell-based; settings: Enterovirus, HeLa cells, NA = not active at the standard test conditions, read-out: Lowest concentration of the compound necessary to cause a 50 percent reduction in cytopathic effect
rhinovirus type 5 (RV-5) = experiment: Tissue culture antiviral testing, RV-5 (cytopathic effect, HeLa cells); assay type: cell-based; settings: Enterovirus, HeLa cells, read-out: Lowest concentration of the compound necessary to cause a 50 percent reduction in cytopathic effect
rhinovirus type 8 (RV-8) = experiment: Tissue culture antiviral testing, RV-8 (cytopathic effect, HeLa cells); assay type: cell-based; settings: Enterovirus, HeLa cells, read-out: Lowest concentration of the compound necessary to cause a 50 percent reduction in cytopathic effect
[4] = system: rhinovirus type 64 (RV-64); experiment: Tissue culture antiviral testing, RV-64 (cytopathic effect, HeLa cells); assay type: cell-based; settings: Enterovirus, HeLa cells, NA = not active at the standard test conditions, read-out: Lowest concentration of the compound necessary to cause a 50 percent reduction in cytopathic effect

SMILES | MCC [1] | EC50 (rhinovirus type 2 (RV-2)) | EC50 [2] | X^2 (Single Oral Dose, chi-square of deaths vs virus control) (Cox A21) | X^2 (Continuous Oral Feeding, chi-square of deaths) (Coxsackie A21 virus) | EC50 [3] | EC50 (rhinovirus type 5 (RV-5)) | EC50 (rhinovirus type 8 (RV-8)) | EC50 [4]
N#Cc1cc([N+](=O)[O-])ccc1Oc1ccccc1C(F)(F)F [Example 26, 2-((2-Trifluoromethyl)phenoxy)-5-nitrobenzonitrile] | ≥ 20 µg/mL | 1.25 µg/mL (≈ 4.06 µM) | 10 µg/mL (≈ 32.4 µM) | – | – | – | – | – | –
CS(=O)(=O)c1ccc(Oc2ccc([N+](=O)[O-])cc2C#N)cc1 [Example 8, 2-(4-(Methylsulfonyl)phenoxy)-5-nitrobenzonitrile] | > 100 µg/mL | 12.5 µg/mL (≈ 39.3 µM) | < 6.25 µg/mL | 0.095 | 10.45 | – | – | – | –
N#Cc1cc([N+](=O)[O-])ccc1Sc1ccc(Cl)cc1 [Example 12, 2-((4-Chlorophenyl)thio)-5-nitrobenzonitrile] | 25 µg/mL | ≤ 1.6 µg/mL | 1.6 µg/mL (≈ 5.5 µM) | 4.805 | 0.215 | ~3.12 µg/mL (≈ 10.7 µM) | – | – | –
Cc1cc(Cl)ccc1Oc1ccc([N+](=O)[O-])cc1C#N [Example 16, 2-(4-Chloro-2-methylphenoxy)-5-nitrobenzonitrile] | > 50 µg/mL | 3.12 µg/mL (≈ 10.8 µM) | 12.5 µg/mL (≈ 43.3 µM) | – | – | 12.5 µg/mL (≈ 43.3 µM) | 6.25 µg/mL (≈ 21.6 µM) | 3.12 µg/mL (≈ 10.8 µM) | –
N#Cc1cc([N+](=O)[O-])ccc1Oc1cccc(C(F)(F)F)c1 [Example 27, 2-((3-Trifluoromethyl)phenoxy)-5-nitrobenzonitrile] | 12.5 µg/mL | 0.625 µg/mL (≈ 2.03 µM) | 1.25 µg/mL (≈ 4.06 µM) | – | – | 2.5 µg/mL (≈ 8.11 µM) | 0.625 µg/mL (≈ 2.03 µM) | 1.25 µg/mL (≈ 4.06 µM) | 0.625 µg/mL (≈ 2.03 µM)
N#Cc1cc([N+](=O)[O-])ccc1Oc1ccc(Oc2ccccc2)cc1 [Example 5, 2-(4-Phenoxyphenoxy)-5-nitrobenzonitrile] | > 100 µg/mL | 50 µg/mL (≈ 150 µM) | < 6.25 µg/mL | 0.719 | 0.26 | – | – | – | –
N#Cc1cc([N+](=O)[O-])ccc1Oc1ccc(Br)cc1 [Example 3, 2-(4-Bromophenoxy)-5-nitrobenzonitrile] | > 100 µg/mL | 1.25 µg/mL (≈ 3.92 µM) | 2.5 µg/mL (≈ 7.83 µM) | 2.139 | 5.81 | 1.25 µg/mL (≈ 3.92 µM) | – | – | –
CCN(CC)S(=O)(=O)c1ccc(Oc2ccc([N+](=O)[O-])cc2C#N)cc1 [Example 10, N,N-Diethyl-4-(2-cyano-4-nitrophenoxy)benzenesulfonamide] | > 100 µg/mL | – | < 6.25 µg/mL | – | 2.84 | ~50 µg/mL (≈ 133 µM) | – | – | –
COc1cccc(Oc2ccc([N+](=O)[O-])cc2C#N)c1 [Example 13, 2-(3-Methoxyphenoxy)-5-nitrobenzonitrile] | > 50 µg/mL | ≤ 3.12 µg/mL | < 3.12 µg/mL | – | – | 6.25 µg/mL (≈ 23.1 µM) | 6.25 µg/mL (≈ 23.1 µM) | 3.12 µg/mL (≈ 11.6 µM) | 12.5 µg/mL (≈ 46.3 µM)
N#Cc1cc([N+](=O)[O-])ccc1Oc1cccc(Cl)c1Cl [Example 22, 2-(2,3-Dichlorophenoxy)-5-nitrobenzonitrile] | > 50 µg/mL | < 3.12 µg/mL | < 3.12 µg/mL | – | – | < 3.12 µg/mL | – | – | < 3.12 µg/mL
CC(=O)c1ccc(Oc2ccc([N+](=O)[O-])cc2C#N)cc1 [Example 15, 2-(4-Acetylphenoxy)-5-nitrobenzonitrile] | > 50 µg/mL | 3.12 µg/mL (≈ 11.1 µM) | < 3.12 µg/mL | – | – | 6.25 µg/mL (≈ 22.1 µM) | 6.25 µg/mL (≈ 22.1 µM) | 3.12 µg/mL (≈ 11.1 µM) | 6.25 µg/mL (≈ 22.1 µM)
N#Cc1cc([N+](=O)[O-])ccc1Oc1cc(C(F)(F)F)cc(C(F)(F)F)c1 [Example 28, 2-(3,5-bis(Trifluoromethyl)phenoxy)-5-nitrobenzonitrile] | ≥ 20 µg/mL | 2.5 µg/mL (≈ 6.65 µM) | 10 µg/mL (≈ 26.6 µM) | – | – | – | – | – | –
N#Cc1cc([N+](=O)[O-])ccc1Oc1c(F)c(F)c(F)c(F)c1F [Example 19, 2-(2,3,4,5,6-Pentafluorophenoxy)-5-nitrobenzonitrile] | 12.5 µg/mL | ≤ 3.12 µg/mL | 6.25 µg/mL (≈ 18.9 µM) | – | – | 6.25 µg/mL (≈ 18.9 µM) | 1.25 µg/mL (≈ 3.79 µM) | 1.25 µg/mL (≈ 3.79 µM) | 0.312 µg/mL (≈ 0.946 µM)
N#Cc1cc([N+](=O)[O-])ccc1Oc1ccc(F)cc1 [Example 21, 2-(4-Fluorophenoxy)-5-nitrobenzonitrile] | 10 µg/mL | < 0.625 µg/mL | 0.625 µg/mL (≈ 2.42 µM) | – | 10.513 | 0.625 µg/mL (≈ 2.42 µM) | 1.25 µg/mL (≈ 4.84 µM) | 0.625 µg/mL (≈ 2.42 µM) | 0.625 µg/mL (≈ 2.42 µM)
C[S+]([O-])c1ccc(Oc2ccc([N+](=O)[O-])cc2C#N)cc1 (stereo not drawn) [Example 7, 2-(4-(Methylsulfinyl)phenoxy)-5-nitrobenzonitrile] | 50 µg/mL | 6.25 µg/mL (≈ 20.7 µM) | < 6.25 µg/mL | 18.94 | 18.82 | – | – | – | –
